Experiments:
D1 receptor = D1 receptor (Homo sapiens (Human), UniProt P21728); conditions: D1 receptor subtype; cited from earlier work
D4 receptor = D4 receptor (Homo sapiens (Human), UniProt P21917); conditions: D4 receptor subtype; cited from earlier work
D5 receptor = D5 receptor (Homo sapiens (Human), UniProt P21918); conditions: D5 receptor subtype; cited from earlier work
[1] = 2014 study, 30 psychiatric drugs tested; cited from earlier work
PCP-treated rats = test: Novel Object Recognition (NOR) assay, sub-chronic PCP; assay type: in vivo, rat; conditions: PO; for difference between novel and familiar object exploration time: 3 hours post-dose, all doses save one; for known object exploration behavior in rats treated with PCP: compared to untreated rats
Method: Efficacy of Compounds 102 and 103 was evaluated in rats in a Novel Object Recognition (NOR) assay, a well-established model recapitulating cognitive and negative aspects of the PANSS scale of schizophrenia. In this assay, animals were treated for several weeks with a low dose of phencyclidine (PCP) to impair the ability of the rat to discern between novel and familiar objects. Typically rats, like humans, would spend more time exploring a novel object than a familiar one.
Rats (n=10/group) were dosed with 2 mg/kg intraperitoneal twice a day (i.p., b.i.d.) for seven days followed by 7 days drug free. […] Novel object exploration time was measured for the test subjects from a sub-chronic PCP NOR study in rats (n=10/group). The differences in exploration time between novel (Tnovel¬) and familiar (Tfamliar) objects are depicted in FIG. 1A (*: p<0.05; and **: p<0.01).

D4 receptor, sequence (P21917 whole entry): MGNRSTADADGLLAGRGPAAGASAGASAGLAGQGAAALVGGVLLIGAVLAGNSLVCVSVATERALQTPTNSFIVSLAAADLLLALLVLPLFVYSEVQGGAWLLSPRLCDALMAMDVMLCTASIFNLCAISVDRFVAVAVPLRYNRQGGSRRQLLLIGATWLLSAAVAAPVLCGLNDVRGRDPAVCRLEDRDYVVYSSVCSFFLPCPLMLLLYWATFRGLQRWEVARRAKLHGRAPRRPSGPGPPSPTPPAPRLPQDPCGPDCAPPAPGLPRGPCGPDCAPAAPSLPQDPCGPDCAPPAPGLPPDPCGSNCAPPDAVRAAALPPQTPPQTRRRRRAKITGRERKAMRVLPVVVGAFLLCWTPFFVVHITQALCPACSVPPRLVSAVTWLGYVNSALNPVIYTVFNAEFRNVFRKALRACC
D1 receptor, sequence (P21728 whole entry): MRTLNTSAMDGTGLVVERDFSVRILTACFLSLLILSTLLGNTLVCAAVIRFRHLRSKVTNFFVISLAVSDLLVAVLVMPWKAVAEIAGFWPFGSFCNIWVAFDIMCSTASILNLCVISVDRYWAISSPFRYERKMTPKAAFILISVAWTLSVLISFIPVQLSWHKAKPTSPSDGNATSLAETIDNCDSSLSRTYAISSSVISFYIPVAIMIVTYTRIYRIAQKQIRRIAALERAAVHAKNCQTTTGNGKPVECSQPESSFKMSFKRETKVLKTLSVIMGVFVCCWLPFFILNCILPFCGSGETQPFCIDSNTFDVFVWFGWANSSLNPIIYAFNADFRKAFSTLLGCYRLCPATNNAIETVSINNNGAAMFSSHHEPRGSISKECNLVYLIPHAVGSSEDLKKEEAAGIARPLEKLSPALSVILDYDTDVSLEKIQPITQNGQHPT
D5 receptor, sequence (P21918 whole entry): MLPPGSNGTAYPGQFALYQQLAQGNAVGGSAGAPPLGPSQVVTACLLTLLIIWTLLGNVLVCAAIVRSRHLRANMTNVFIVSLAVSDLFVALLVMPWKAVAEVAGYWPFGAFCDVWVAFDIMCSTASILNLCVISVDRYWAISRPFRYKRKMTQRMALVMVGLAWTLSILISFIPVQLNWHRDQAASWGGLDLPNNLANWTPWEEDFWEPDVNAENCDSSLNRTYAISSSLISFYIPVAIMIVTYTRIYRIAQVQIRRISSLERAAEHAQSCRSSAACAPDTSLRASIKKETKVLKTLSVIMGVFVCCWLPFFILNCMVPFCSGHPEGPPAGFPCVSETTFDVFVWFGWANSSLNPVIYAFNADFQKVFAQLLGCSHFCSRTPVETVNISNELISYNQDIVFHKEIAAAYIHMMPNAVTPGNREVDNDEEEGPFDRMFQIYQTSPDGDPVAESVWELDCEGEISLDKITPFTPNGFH

For `CCN1CCCC1CNC(=O)c1cc(S(=O)(=O)CC)c(N)cc1OC` (centres unmarked) [Amisulpride, 4-amino-N-(((1-ethyl-2-pyrrolidinyl)methyl)-5-(ethylsulfonyl))-2-methoxybenzamide], the affinity (D1 receptor) is given as “without any affinity”, the affinity (D4 receptor) is given as “without any affinity” and the affinity (D5 receptor) is given as “without any affinity”. The “passive diffusion across a PAMPA membrane (Pe)” value [1] was “lowest of 30 psychiatric drugs tested”.
For `CCN1CCCC1CNC(=O)c1cc(S(=O)(=O)CC)c(NC)cc1OC` (centres unmarked) [Compound 102], the “difference between novel and familiar object exploration time” value (PCP-treated rats) was “increased” and the “known object exploration behavior in rats treated with PCP” value (PCP-treated rats) was “able to restore known object exploration behavior in rats treated with PCP to levels similar to untreated rats”.
For `CCN1CCC[C@H]1CNC(=O)c1cc(S(=O)(=O)CC)c(NC)cc1OC` [Compound 103, ((S)-4-methylamino-N-((1-ethyl-2-pyrrolidinyl)methyl)-5-(ethylsulfonyl))-2-methoxybenzamide], the “difference between novel and familiar object exploration time” value (PCP-treated rats) was “increased” and the “known object exploration behavior in rats treated with PCP” value (PCP-treated rats) was “able to restore known object exploration behavior in rats treated with PCP to levels similar to untreated rats”.
